# System: breast cancer cells (MMTV-PyMT, MDA-MB231, MCF7)
# Assay: Dose-dependency study with Apotracker Red and CellTrace Violet
# Assay type: cell-based, mouse and human
# Conditions: 1 to 100 µM
# Method: First, all drugs were tested in the 8 different cell lines to determine the percentages of Apotracker Red‐stained apoptotic cells compared to no treatment (Figure 3 c; Figure S8). […] From this screen, we decided to select 5 drugs with potent pro‐apoptotic response in breast cancer, the most diagnosed cancer worldwide.[25] […] From group 2, we selected cyclophosphamide, tamoxifen, and 5‐fluorouracil as pro‐apoptotic molecules. […] All 5 drugs were tested at multiple concentrations (from 1 to 100 μM) and with incubation times up to 48 h to examine whether drugs could block cell proliferation at late stages (Figures S9–S13).
# Figure 4 Apotracker Red detects dose‐dependent chemotherapeutic‐induced apoptosis in mouse and human breast cancer cell lines. Cells were plated with 1 μM CV, treated with increasing concentrations (0, 1, 3, 10, 30 and 100 μM) of selected drugs for 48 h, and stained with Apotracker Red (150 nM) before data acquisition. Drugs: tamoxifen (beige), cisplatin (black), 5‐fluorouracil (green), gemcitabine (pink) and cyclophosphamide (red). Data presented as mean±SEM of 3 independent experiments.
# Figure S9. Flow cytometry analysis of cisplatin in different breast cancer cell lines.
# Representative flow cytometric plots (from three independent experiments) of MMTV-PyMT cells (a), MDA-MB231 cells (b) and MCF7 cells (c) after treatment with increasing concentrations of cisplatin for 48 h. Cells were stained on day 0 with CellTraceTM Violet (1 µ M) and with Apotracker Red (150 nM) before data acquisition.
# (1 picture or pasted object on this page, not shown here)
# Edinburgh. Human peripheral blood neutrophils were isolated as previously described.[3] […]
# were centrifuged (300 g, 5 min, r.t.), washed once with PBS before addition of 0.05% Trypsin, 0.02% ethylenediaminetetraacetic acid (EDTA) in Hank’s balanced salt solution (HBSS) and incubation at 37°C for 5 min. […] Histograms and mean fluorescence intensities of […]
smiles,measurement,setting,value
N.N.[Cl][Pt][Cl] [cisplatin],"Percentages of Apotracker Red staining, dose-dependency study","48 h, Apotracker Red 150 nM, 3 independent experiments",highest percentages of Apotracker Red staining across all breast cancer cells
same,"Ratios of proliferation blockage, dose-dependency study","up to 48 h, CellTrace Violet 1 µM",highest ratios of proliferation blockage

# From PMC8991960, “A Bivalent Activatable Fluorescent Probe for Screening and Intravital Imaging of Chemotherapy‐Induced Cancer Cell Death” (Angewandte Chemie (International Ed. in English), 2021)
